Molecules are shown by their SMILES. Converted amounts (≈) assume the structure as drawn.

One may read the solubility as how much of the substance goes into solution per volume. As usually defined, the inhibition is the share of the control response that was lost under treatment. A low value points to a weak effect.

The nature of data set [1]: Solubility of free compound Ic-1 in different solvents. Conditions: thermodynamic from solid, room temperature. It is filed as physicochemical. On the procedure: The free base of the compound of formula Ic-1 was used as the starting material to obtain other salt forms. The free base of the compound of formula Ic-1 was an oily substance, and the solubility of the free base of the compound of formula Ic-1 in 11 common solvents was tested at room temperature. In the experiment, about 2 mg of compound Ic-1 oily sample was weighed into a 3-ml vial, and then the corresponding solvent was gradually added (50, 50, 200, 700 μLL) and shaken until the solution was clear. If the sample was still not dissolved after adding the solvent to 1 ml, the solvent was not added any more. The rough solubility range calculated according to the mass of the solid sample, the volume of the added solvent and the observed dissolution phenomenon was shown in Table 8.

For the next data set, the target named is T1, TRPV4 (Homo sapiens, UniProt Q9HBA0).
T1 construct: expressed in transfected cells
Briefly: Manual patch clamp detection on TRPV4 channel. It counts as cell-based. To be noted: 10.00 μM, HEK293, GSK1016790A-induced current. On the procedure: TRPV4 cells were cultured in a cell culture dish with a diameter of 35 mm, placed in an incubator in 5% CO2 at 37° C., and passaged at a ratio of 1:5 every 48 hours. The formula of medium was 90% DMEM (Invitrogen), 10% fetal bovine serum (Gibco), 2 mM L-glutamine, 50 μg/mL Hygromycin B (Invitrogen) and 5 μg/mL Blasticidine HCl (Invitrogen). Before electrophysiological patch clamp experiment, the cell culture medium was replaced with medium containing 1 μg/mL doxycycline for at least 16 hours to induce the expression of TRPV4.
On the day of the experiment, the cell culture medium was aspirated, the cell were rinsed once with extracellular fluid, and then 0.25% Trypsin-EDTA (Invitrogen) solution was added, and digested at room temperature for 1-2 minutes. The digestion solution was aspirated, the cell were resuspended with extracellular fluid, and transferred to the experimental dish for electrophysiological recording for further experiment. […]
HEK293 cells stably expressing TRP channels, the corresponding agonist-induced channel current was recorded by whole-cell patch clamp technique at room temperature. […] Clamp voltages and data recording were controlled and recorded by a computer using pClamp 11 software with the sampling frequency of 10 kHz and the filtering frequency of 2 kHz. […] After the current was evoked for more than 40 s and no attenuation was determined, the dosing process started. […]

T1 sequence (Q9HBA0 whole entry, species assumed): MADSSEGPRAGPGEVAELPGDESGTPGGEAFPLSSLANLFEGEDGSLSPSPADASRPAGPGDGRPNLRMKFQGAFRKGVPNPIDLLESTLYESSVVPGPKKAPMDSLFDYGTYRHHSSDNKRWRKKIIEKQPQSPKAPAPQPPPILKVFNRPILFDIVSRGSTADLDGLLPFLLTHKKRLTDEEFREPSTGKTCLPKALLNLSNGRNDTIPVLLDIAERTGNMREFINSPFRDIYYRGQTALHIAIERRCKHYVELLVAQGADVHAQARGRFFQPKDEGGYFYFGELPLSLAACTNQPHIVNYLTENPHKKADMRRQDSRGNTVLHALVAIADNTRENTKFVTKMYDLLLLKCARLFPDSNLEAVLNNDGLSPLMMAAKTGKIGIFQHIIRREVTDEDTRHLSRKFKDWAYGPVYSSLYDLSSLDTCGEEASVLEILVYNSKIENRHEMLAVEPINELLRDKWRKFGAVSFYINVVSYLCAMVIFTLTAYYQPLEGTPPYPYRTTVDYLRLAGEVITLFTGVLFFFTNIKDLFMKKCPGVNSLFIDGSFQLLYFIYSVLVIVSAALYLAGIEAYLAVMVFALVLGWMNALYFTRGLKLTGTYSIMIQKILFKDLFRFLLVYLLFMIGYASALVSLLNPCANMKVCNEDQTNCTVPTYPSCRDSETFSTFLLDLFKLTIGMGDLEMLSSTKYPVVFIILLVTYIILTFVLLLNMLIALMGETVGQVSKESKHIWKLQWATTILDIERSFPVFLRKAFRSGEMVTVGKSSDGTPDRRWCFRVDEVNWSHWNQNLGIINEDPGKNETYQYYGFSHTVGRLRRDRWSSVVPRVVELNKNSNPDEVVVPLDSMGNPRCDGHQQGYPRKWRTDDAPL

Take `CNCC[C@H](Oc1cccc2ccoc12)c1cccs1` [IC-1, (S)-3-(Benzofuran-7-yloxy)-N-methyl-3-(thiophen-2-yl)propan-1-amine]: the solubility in data set [1] (aqueous with cosolvent or surfactant or cyclodextrin, Methanol:Water (1:1)) was greater than 38 mg/mL; in data set [1] (organic solvent or mixture, Acetone), greater than 46 mg/mL; in data set [1] (organic solvent or mixture, Acetonitrile), greater than 54 mg/mL; in data set [1] (organic solvent or mixture, Dimethyl sulfoxide), greater than 38 mg/mL; in data set [1] (organic solvent or mixture, Ethanol), greater than 42 mg/mL; in data set [1] (organic solvent or mixture, Ethyl acetate), greater than 36 mg/mL. The solubility is greater than 38 mg/mL in data set [1] (organic solvent or mixture, Methanol); greater than 42 mg/mL in data set [1] (organic solvent or mixture, Methyl isobutyl ketone); greater than 40 mg/mL in data set [1] (organic solvent or mixture, Tetrahydrofuran); 7.6 to 23 mg/mL (≈ 26.4 to 80 mM) in data set [1] (organic solvent or mixture, n-Heptane); less than 2 mg/mL in data set [1] (Water). In addition, the inhibition at 10 µM against TRPV4 came to 4.68%.

These data come from US12492195B2, “Preparation method for and crystal form of 3-aryloxy-3-five-membered heteroaryl-propylamine compound” (Zhangzhou Pien Tze Huang Pharmaceutical Co., Ltd., priority 2020, dated 2025).
